Results published in patent US8759073B2, “Method for effectively controlling harmful organisms in large-scale culture of microalgae” (ENN Science & Technology Development Co., Ltd., priority 2009, dated 2014).

Columns and labels:
Oxyrrhis = assay: Control of Oxyrrhis contamination in microalgae culture, microscope examination; assay type: cell-based, Oxyrrhis sp
From the text: If the contaminated alga liquid is identified as acid tolerant contamination, pH value is raised up with alkalis in the culture system of the microalgae and maintained for a period of time. The pH value cannot be higher than the maximal tolerable pH of the microalgae. […] In an embodiment, said alkali can be ammonia. In an embodiment, said alkali can be NaOH. In an embodiment, said alkali can be 1M NaOH. Depending on different pH requirements and different culture systems, alkalis with different concentrations can be used according to the agitation condition, as long as the transient pH is not too high to be harmful to microalgae, and dilution of the cell concentration in the culture system (caused by adding too much alkali solution) should also be avoided. […] In an embodiment, the pH of the culture system is adjusted to 11.5-12.0 with 1M NaOH or 1M ammonia. In an embodiment, the pH of the culture system is adjusted to 11.0-11.8 or 8.0-11.0 with 1M NaOH or 1M ammonia. In an embodiment, the pH of the culture system is adjusted to 8.0-11.0, 11.5-12.0 or 11.0-11.8 and maintained for 3 hours.
Microscope examination is always used as one of the bases for determining the growth status in the process of microalgae culture.
(§1) Chlorella sp. (purchased from FACHB collection, Wuhan Aquatic Research Institure, Chinses Academy of Sciences) was cultured in a 320 L bubbling reactor (manufactured by Longfang Jiangchuan plexiglass Co. Ltd., φ300 mm×2 m) out-of-doors under a sunlight film. The culture condition included: a temperature of about 25 °C, a humidity of 60%-80%, and an illumination of 8000-20000 lux. Modified SM (see Table 2) (pH 7.0-9.0 for the normal culture) was used. […] Then, CO2 was aerated to adjust pH to be 7.0-8.0.
(§2) Chlorella sp. (obtained from Jinan University) was cultured in a 320 L bubbling reactor (manufactured by Longfang Jiangchuan plexiglass Co. Ltd., φ300 mm×2 m) out-of-doors under a sunlight film (with a temperature of about 25 °C, a humidity of 60%-80%, and an illumination of 8000-20000 lux). Modified SM medium (see Table 2) was used. When Amoeba, Oxyrrhis and ciliate contaminations were observed is with an oil immersion lens (Nikon fluorescent invert microscope Ti series), pH was adjusted to 11.0-11.8 with 1M NaOH. […] Then, CO2 was aerated continuously to saturation (pH 5.6). […] Then air was sufficiently aerated.
(§3) Chlorococcum sp. (obtained from Qingdao Marine Institute) was cultured in a 60 L glass plate reactor (manufactured by Longfang Jiangchuan plexiglass Co. Ltd., OP=10 cm) under a sunlight film (with a temperature of about 25 °C, a humidity of 60%-80%, and an illumination of 8000-20000 lux) (pH 8.0-9.0 for the normal culture). Modified BG11 medium (see Table 3) was used. […] Then CO2 was aerated and pH was adjusted to 7.0-8.0.
(§4) Chlorococcum sp. (obtained from Qingdao Marine Institute) was cultured in a 60 L glass plate reactor (manufactured by Longfang Jiangchuan plexiglass Co. Ltd., OP=10 cm) under a sunlight film (with a temperature of about 25 °C, a humidity of 60%-80%, and an illumination of 8000-20000 lux) (pH 8.0-9.0 for the normal culture). Modified BG11 medium (see Table 3) was used. […] One hour later, CO2 was aerated to saturation (about pH 5.6) for 24 hour continuously. […] Then air was sufficiently aerated.

Chlorella sp. = assay: Growth of cultured algae after treatment, 320 L bubbling reactor; details: for algae growth compared with adjusting pH with NaOH: pH adjusted with 1M ammonia
Experimental: (§5) pH of the normally cultured microalgae is adjusted into various ranges. The growth rate of the microalgae is measured and their appearance is observed under a microscope.
as §1
Chlorella sp. (purchased from FACHB collection, Wuhan Aquatic Research Institure, Chinses Academy of Sciences) was cultured in a 320 L bubbling reactor (manufactured by Longfang Jiangchuan plexiglass Co. Ltd., φ300 mm×2 m) out-of-doors under a sunlight film. Modified SM medium (see Table 2) (pH 7.0-9.0 for the normal culture) was used. The culture condition included: a temperature of about 25 °C, a humidity of 60%-80%, and an illumination of 8000-20000 lux. […] Then air was sufficiently aerated, and pH was raised to 7.0-7.5 after 4 hours.
as §2
Chlorella sp. (purchased from FACHB collection, Wuhan Aquatic Research Institure, Chinses Academy of Sciences) was cultured in a 320 L bubbling reactor (manufactured by Longfang Jiangchuan plexiglass Co. Ltd., φ300 mm×2 m) out-of-doors under a sunlight film. Modified SM medium (see Table 2) (pH 7.0-9.0 for the normal culture) was used. The culture condition included: a temperature of about 25 °C, a humidity of 60%-80%, and an illumination of 8000-20000 lux. […] Then CO2 was aerated and pH was adjusted to 7.0-8.0.
Chlorella sp. (obtained from Jinan University) was cultured in a 320 L bubbling reactor (manufactured by Longfang Jiangchuan plexiglass Co. Ltd., φ300 mm×2 m) out-of-doors under a sunlight film (with a temperature of about 25 °C, a humidity of 60%-80%, and an illumination of 8000-20000 lux). Modified SM medium (see Table 2) was used. […] Then CO2 was aerated to saturation (pH 5.6) for 24 hours continuously. […] Then air was sufficiently aerated.

Chlorococcum sp. = assay: Growth of cultured algae after treatment, 60 L glass plate reactor; details: for algae growth compared with adjusting pH with NaOH: pH adjusted with 1M ammonia
Experimental: as §5
Chlorococcum sp. (obtained from Qingdao Marine Institute) was cultured (pH 8.0-9.0 for the normal culture) in a 60 L glass plate reactor (manufactured by Longfang Jiangchuan plexiglass Co. Ltd., OP=10 cm) under a sunlight film (with a temperature of about 25 °C, a humidity of 60%-80%, and an illumination of 8000-20000 lux). Modified BG11 medium (see Table 3) was used. […] CO2 was aerated continuously. […] Then air was sufficiently aerated, and pH was raised to 7.0-8.0 in 4 hours.
as §3, §4
Chlorococcum sp. (obtained from Qingdao Marine Institute) was cultured in a 60 L glass plate reactor (manufactured by Longfang Jiangchuan plexiglass Co. Ltd., OP=10 cm) under a sunlight film (with a temperature of about 25 °C, a humidity of 60%-80%, and an illumination of 8000-20000 lux) (pH 8.0-9.0 for the normal culture). Modified BG11 medium (see Table 3) was used. […] Then air was sufficiently aerated.
as §3
Chlorococcum sp. (obtained from Qingdao Marine Institute) was cultured in a 60 L glass plate reactor (manufactured by Longfang Jiangchuan plexiglass Co. Ltd., OP=10 cm) under a sunlight film (with a temperature of about 25 °C, a humidity of 60%-80%, and an illumination of 8000-20000 lux) (pH 8.0-9.0 for the normal culture). Modified BG11 medium (see Table 3) was used.

Spirulina maxima = assay: Growth of cultured algae after treatment, 500 L raceway pond; assay type: cell-based; details: Example 15; pH adjusted with 1M ammonia
Experimental: Modified SM (see Table 2) was used. […] Then air was sufficiently aerated. Twenty-four hours later, the algae could resume to grow.
Modified SM (see Table 2) was used. […] One hour later, CO2 was aerated to saturation for 23 hour continuously (about pH 5.8). […] Then air was sufficiently aerated. Twenty-four hours later, the algae could resume to grow.

| Structure (SMILES) | Oxyrrhis, result of microscope examination (Oxyrrhis; Example 2, Chlorella sp. culture, pH 11.0-11.8 with 1M NaOH, three hours) | Oxyrrhis, result of microscope examination (Oxyrrhis; Example 4, Chlorella sp. culture, mixed contamination, pH 11.0-11.8 with 1M NaOH, one hour) | Oxyrrhis, result of microscope examination (Oxyrrhis; Example 6, Chlorococcum sp. culture, pH 11.5-12.0 with 1M NaOH, three hours) | Oxyrrhis, result of microscope examination (Oxyrrhis; Example 7, Chlorococcum sp. culture, mixed contamination, pH 11.5-12.0 with 1M NaOH) | Oxyrrhis, result of microscope examination (Oxyrrhis; Example 11, Chlorella sp. culture, pH 8.0 with 1M ammonia, three hours) | Oxyrrhis, result of microscope examination (Oxyrrhis; Example 12, Chlorella sp. culture, mixed contamination, pH 9.0 with 1M ammonia, one hour) | Oxyrrhis, result of microscope examination (Oxyrrhis; Example 13, Chlorococcum sp. culture, pH 10.0 with 1M ammonia, three hours) | Oxyrrhis, result of microscope examination (Oxyrrhis; Example 14, Chlorococcum sp. culture, mixed contamination, pH 9.0 with 1M ammonia) | time until algae started to grow (Chlorella sp.; Example 11, pH 8.0 with 1M ammonia 3 h, then CO2 to pH 7.0-8.0) | algae growth compared with adjusting pH with NaOH (Chlorella sp.; Example 11) | algae growth compared with adjusting pH with NaOH (Chlorella sp.; Example 12) | time until algae started to grow (Chlorococcum sp.; Example 13, pH 10.0 with 1M ammonia 3 h, then CO2 to pH 7.0-8.0) | algae growth compared with adjusting pH with NaOH (Chlorococcum sp.; Example 13) | algae growth compared with adjusting pH with NaOH (Chlorococcum sp.; Example 14) | algae growth compared with adjusting pH with NaOH (Spirulina maxima) |
| --- | --- | --- | --- | --- | --- | --- | --- | --- | --- | --- | --- | --- | --- | --- | --- |
| [Na+].[OH-] [1M NaOH, NaOH] | almost no Oxyrrhis | essentially inactivated | almost no Oxyrrhis | essentially inactivated |  |  |  |  |  |  |  |  |  |  |  |
| N [1M ammonia, ammonia] |  |  |  |  | almost no Oxyrrhis was observed | lost its activity essentially | almost no Oxyrrhis | inactivated essentially | 18 h | clearly grew better | clearly grew better | 18 h | clearly grew better | clearly grew better | clearly grew better |
